Measurements: patent US20250057844A1, “METHODS OF TREATING NEOPLASTIC DISEASES” (SILLAJEN, INC., priority 2021, published 2025)
Read-outs that look alike come from different tables or passages of the source.

Key:
[1] = tested on: tumor patient-derived xenografts (PDX), including TNBC and hepatocellular cancer (HCC) models; experiment: Patient-derived xenografts (PDX) in mice; assay type: in vivo; conditions: data not shown
[2] = Third PK study: intravenous dose on day 1 or on day 6 after 5 days oral dosing; assay type: in vivo, female Swiss Albino mice; conditions: for half-life / clearance / Vd / AUC(0-inf) / AUC(0-t) / C0: female, Swiss Albino, mouse, plasma, iv, 5 mg/kg
Procedure: In a third study female Swiss Albino mice were administered intravenously (bolus, 5 mL/kg) dose of 5 mg/kg of the compound of formula (I). Group 1 (9 mice) received a single i.v. dose administration on day 1. Group 2 (9 mice) received daily oral administration of 10 mg/kg of the compound of formula (I) from day 1 to day 5 following by a single i.v. dose administration of 5 mg/kg of the compound of formula (I) on day 6. PK samples were collected on day 1 for group 1 and on day 6 for group 2. The formulation vehicle consisted of ethanol, PEG 400 and citric acid 20 mM (10/10/80; v/v/v) in water for injection (WFI). Blood samples were taken pre-dose and at 0.083, 0.25, 0.5, 1, 2, 6, 12, and 24 h post-dose administration (3 mice/time point). In each of the three studies blood was collected via the sephanous vein into K2-EDTA tubes kept on ice until centrifugation at 4° C. Plasma was stored at ap-proximately-80° C. […] PK parameters were calculated using Phoenix® WinNonLin 6.4. PK analysis was based on sparse sampling.

[3] = First PK study: single oral dose, two formulations; assay type: in vivo, female Swiss Albino mice; conditions: for Tmax / bioavailability / AUC(0-inf) / AUC(0-t) / Cmax / half-life: Swiss Albino, mouse, plasma; for bioavailability: based on i.v. exposure; for AUC(0-t): AUC0-24 h; for Cmax: mean (SD); for half-life: read-out: Apparent T1/2 (converted)
Procedure: Plasma samples were collected on day 1 for Groups 1 to 6. Formulation 1 consisted of DMSO, cremophor EL, and 5% mannitol in water (10/10/80; v/v/v). Formulation 2 consisted of ethanol, PEG 400, and citric acid 20 mM (10/10/80; v/v/v). […] In each of the three studies blood was collected via the sephanous vein into K2-EDTA tubes kept on ice until centrifugation at 4° C. Plasma was stored at ap-proximately-80° C. […] PK parameters were calculated using Phoenix® WinNonLin 6.4. PK analysis was based on sparse sampling.

biotinylated PLK1 = biotinylated PLK1 (Homo sapiens, UniProt P53350); experiment: Target residence time assay (Biacore T200 surface plasmon resonance), PLK1; assay type: binding; conditions: SPR, 22° C.
biotinylated PLK1, sequence (P53350 whole entry, the tested form may be a part): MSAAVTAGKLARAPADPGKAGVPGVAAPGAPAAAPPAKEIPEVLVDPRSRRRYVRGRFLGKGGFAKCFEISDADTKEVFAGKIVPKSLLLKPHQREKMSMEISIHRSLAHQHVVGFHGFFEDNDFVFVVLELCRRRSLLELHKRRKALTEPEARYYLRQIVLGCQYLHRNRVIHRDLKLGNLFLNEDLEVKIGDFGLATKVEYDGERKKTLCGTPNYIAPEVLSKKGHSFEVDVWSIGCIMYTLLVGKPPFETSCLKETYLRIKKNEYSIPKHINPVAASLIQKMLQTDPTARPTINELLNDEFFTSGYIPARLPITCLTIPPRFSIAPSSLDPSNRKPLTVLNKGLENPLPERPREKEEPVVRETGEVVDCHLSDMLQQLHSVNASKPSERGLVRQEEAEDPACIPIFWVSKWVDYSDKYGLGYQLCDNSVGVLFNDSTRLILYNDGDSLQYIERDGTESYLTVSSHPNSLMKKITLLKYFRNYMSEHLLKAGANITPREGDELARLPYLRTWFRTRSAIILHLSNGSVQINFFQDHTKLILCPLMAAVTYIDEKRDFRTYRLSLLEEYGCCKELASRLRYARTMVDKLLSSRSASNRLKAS
Procedure: The affinity, i.e. the equilibrium dissociation constant (KD) ([…]), of the compound of formula (I) against TTK and PLK1 were determined using a Biacore T200TM surface plasmon resonance instrument using recombinant expressed TTK kinase domain (amino acids 519-808) or biotinylated PLK1. The immobilization of TTK was performed as described in Maia et al. Annals of Oncology, 2015; 26:2180-2192. The immobilization of biotinylated PLKI was performed as described in Willemsen-Seegers et al. Journal of Molecular Biology, 2017; 429:574-586. The subsequent single cycle kinetic assays were performed at 22° C. using a compound concentration gradient of 1, 3.6, 10, 31.6 and 100 nM for TTK and 10, 31.6, 100, 316 and 1000 nM for PLK1, a contact time of 100 s and a flow rate of […]. The dissociation period was 1200-1800 s and a correction for an unstable surface using a blank run with buffer was performed.

[4] = Group 1, Day 1: single 5 mg/kg i.v., female mice
[5] = Group 2, Day 6: 5 mg/kg i.v. after 10 mg/kg oral daily for 5 days, female mice
[6] = female, po, 5 mg/kg, single oral 5 mg/kg, Formulation 1, female mice
[7] = female, po, 5 mg/kg, single oral 5 mg/kg, Formulation 2, female mice
[8] = female, po, 7.5 mg/kg, single oral 7.5 mg/kg, Formulation 1, female mice
[9] = female, po, 7.5 mg/kg, single oral 7.5 mg/kg, Formulation 2, female mice
[10] = female, po, 10 mg/kg, single oral 10 mg/kg, Formulation 1, female mice
[11] = female, po, 10 mg/kg, single oral 10 mg/kg, Formulation 2, female mice
[12] = single oral 5 mg/kg, Formulation 1, female mice
[13] = single oral 5 mg/kg, Formulation 2, female mice
[14] = single oral 7.5 mg/kg, Formulation 1, female mice
[15] = single oral 7.5 mg/kg, Formulation 2, female mice
[16] = single oral 10 mg/kg, Formulation 1, female mice
[17] = single oral 10 mg/kg, Formulation 2, female mice

Q: For `COc1cc(N2CCNCC2)ccc1Nc1ncc2c(n1)-n1ccc(C(=O)Nc3c(C)cccc3C)c1CC2` [compound of formula (I)], which “activity against PDX” value [1] is on record?
A: significant activity

Q: And the “concentrations at 24 hours lower than C0” value ([2]; 5 mg/kg i.v.)?
A: more than 100 fold

Q: And the “maximum AUCinf extrapolation” value ([2]; 5 mg/kg i.v.)?
A: ≤ 2.54%

Q: What about the AUC_% extrapolated [2, 4] of the same molecule?
A: 2.54%

Q: What about the Clast [2, 4] of the same molecule?
A: 5.4 ng/mL

Q: And the AUC_% extrapolated [2, 5]?
A: 1.65%

Q: And the Clast [2, 5]?
A: 4.29 ng/mL

Q: What about the half-life ([2]; 5 mg/kg i.v., both groups, read-out: half-life) of the same molecule?
A: 4 to 4.7 h

Q: What about the clearance ([2]; 5 mg/kg i.v., both groups, read-out: plasma clearance) of the same molecule?
A: 55.4 to 57.9 mL/min/kg

Q: And the Vd ([2]; 5 mg/kg i.v., both groups, read-out: volume of distribution)?
A: 15.4 to 19 L/kg

Q: What about the AUC(0-inf) [2, 4] of the same molecule?
A: 1440 ng·h/mL

Q: What about the AUC(0-t) [2, 4] of the same molecule?
A: 1400 ng·h/mL

Q: What about the C0 [2, 4] of the same molecule?
A: 636 ng/mL

Q: What about the clearance ([2]; Group 1, Day 1: single 5 mg/kg i.v., female mice, read-out: CL) of the same molecule?
A: 57.9 mL/min/kg

Q: And the half-life ([2]; Group 1, Day 1: single 5 mg/kg i.v., female mice, read-out: T1/2 (converted))?
A: 4.7 h

Q: What about the Vd ([2]; Group 1, Day 1: single 5 mg/kg i.v., female mice, read-out: Vss) of the same molecule?
A: 19 L/kg

Q: What about the AUC(0-inf) [2, 5] of the same molecule?
A: 1500 ng·h/mL

Q: And the AUC(0-t) [2, 5]?
A: 1480 ng·h/mL

Q: What about the C0 [2, 5] of the same molecule?
A: 627 ng/mL

Q: What about the clearance ([2]; Group 2, Day 6: 5 mg/kg i.v. after 10 mg/kg oral daily for 5 days, female mice, read-out: CL) of the same molecule?
A: 55.4 mL/min/kg

Q: And the half-life ([2]; Group 2, Day 6: 5 mg/kg i.v. after 10 mg/kg oral daily for 5 days, female mice, read-out: T1/2 (converted))?
A: 4 h

Q: And the Vd ([2]; Group 2, Day 6: 5 mg/kg i.v. after 10 mg/kg oral daily for 5 days, female mice, read-out: Vss)?
A: 15.4 L/kg

Q: What about the Tmax ([3]; single oral 5 mg/kg, Formulation 1, female mice, read-out: Tmax) of the same molecule?
A: 4 h

Q: What about the Tmax ([3]; single oral 7.5 mg/kg, Formulation 1, female mice, read-out: Tmax) of the same molecule?
A: 4 h

Q: And the Tmax ([3]; single oral 10 mg/kg, Formulation 1, female mice, read-out: Tmax)?
A: 4 h

Q: What about the bioavailability ([3]; female, oral, single dose administration, read-out: oral bioavailability) of the same molecule?
A: 76 to 96%

Q: What about the AUC(0-inf) [3, 6] of the same molecule?
A: 1100 ng·h/mL

Q: And the AUC(0-t) [3, 6]?
A: 1080 ng·h/mL

Q: And the bioavailability ([3]; female, po, 5 mg/kg, single oral 5 mg/kg, Formulation 1, female mice, read-out: F (%))?
A: 76%

Q: And the Cmax [3, 6]?
A: 108 ng/mL

Q: What about the half-life [3, 6] of the same molecule?
A: 3.27 h

Q: What about the AUC(0-inf) [3, 7] of the same molecule?
A: 1130 ng·h/mL

Q: And the AUC(0-t) [3, 7]?
A: 1120 ng·h/mL

Q: And the bioavailability ([3]; female, po, 5 mg/kg, single oral 5 mg/kg, Formulation 2, female mice, read-out: F (%))?
A: 78%

Q: And the Cmax [3, 7]?
A: 103 ng/mL

Q: And the half-life [3, 7]?
A: 3.29 h

Q: What about the AUC(0-inf) [3, 8] of the same molecule?
A: 1660 ng·h/mL

Q: What about the AUC(0-t) [3, 8] of the same molecule?
A: 1650 ng·h/mL

Q: And the bioavailability ([3]; female, po, 7.5 mg/kg, single oral 7.5 mg/kg, Formulation 1, female mice, read-out: F (%))?
A: 77%

Q: And the Cmax [3, 8]?
A: 164 ng/mL

Q: And the half-life [3, 8]?
A: 3.23 h

Q: What about the AUC(0-inf) [3, 9] of the same molecule?
A: 1910 ng·h/mL

Q: And the AUC(0-t) [3, 9]?
A: 1880 ng·h/mL

Q: And the bioavailability ([3]; female, po, 7.5 mg/kg, single oral 7.5 mg/kg, Formulation 2, female mice, read-out: F (%))?
A: 88%

Q: And the Cmax [3, 9]?
A: 172 ng/mL

Q: What about the half-life [3, 9] of the same molecule?
A: 3.51 h

Q: And the AUC(0-inf) [3, 10]?
A: 2480 ng·h/mL

Q: What about the AUC(0-t) [3, 10] of the same molecule?
A: 2430 ng·h/mL

Q: What about the bioavailability ([3]; female, po, 10 mg/kg, single oral 10 mg/kg, Formulation 1, female mice, read-out: F (%)) of the same molecule?
A: 86%

Q: What about the Cmax [3, 10] of the same molecule?
A: 210 ng/mL

Q: What about the half-life [3, 10] of the same molecule?
A: 3.66 h

Q: What about the AUC(0-inf) [3, 11] of the same molecule?
A: 2770 ng·h/mL

Q: And the AUC(0-t) [3, 11]?
A: 2730 ng·h/mL

Q: What about the bioavailability ([3]; female, po, 10 mg/kg, single oral 10 mg/kg, Formulation 2, female mice, read-out: F (%)) of the same molecule?
A: 96%

Q: What about the Cmax [3, 11] of the same molecule?
A: 276 ng/mL

Q: And the half-life [3, 11]?
A: 3.43 h

Q: And the Tmax ([3]; female, single oral administration, 5-10 mg/kg, both formulations, read-out: median Tmax)?
A: 4 h

Q: And the “% extrapolated” value [3, 12]?
A: 1.11%

Q: And the AUCinf/Dose [3, 12]?
A: 220 ng·h/mL/mg/kg

Q: And the AUClast/Dose [3, 12]?
A: 216 (h*ng/mL)/(mg/kg)

Q: And the Cmax/Dose [3, 12]?
A: 21.6 (ng/mL)/(mg/kg)

Q: And the “% extrapolated” value [3, 13]?
A: 1.14%

Q: And the AUCinf/Dose [3, 13]?
A: 226 ng·h/mL/mg/kg

Q: And the AUClast/Dose [3, 13]?
A: 224 (h*ng/mL)/(mg/kg)

Q: And the Cmax/Dose [3, 13]?
A: 20.6 (ng/mL)/(mg/kg)

Q: What about the “% extrapolated” value [3, 14] of the same molecule?
A: 1.06%

Q: And the AUCinf/Dose [3, 14]?
A: 221 ng·h/mL/mg/kg

Q: What about the AUClast/Dose [3, 14] of the same molecule?
A: 220 (h*ng/mL)/(mg/kg)

Q: What about the Cmax/Dose [3, 14] of the same molecule?
A: 21.9 (ng/mL)/(mg/kg)

Q: And the “% extrapolated” value [3, 15]?
A: 1.67%

Q: What about the AUCinf/Dose [3, 15] of the same molecule?
A: 255 ng·h/mL/mg/kg

Q: What about the AUClast/Dose [3, 15] of the same molecule?
A: 251 (h*ng/mL)/(mg/kg)

Q: And the Cmax/Dose [3, 15]?
A: 22.9 (ng/mL)/(mg/kg)

Q: And the “% extrapolated” value [3, 16]?
A: 1.9%

Q: What about the AUCinf/Dose [3, 16] of the same molecule?
A: 248 ng·h/mL/mg/kg

Q: And the AUClast/Dose [3, 16]?
A: 243 (h*ng/mL)/(mg/kg)

Q: What about the Cmax/Dose [3, 16] of the same molecule?
A: 21 (ng/mL)/(mg/kg)

Q: What about the “% extrapolated” value [3, 17] of the same molecule?
A: 1.47%

Q: And the AUCinf/Dose [3, 17]?
A: 277 ng·h/mL/mg/kg

Q: And the AUClast/Dose [3, 17]?
A: 273 (h*ng/mL)/(mg/kg)

Q: What about the Cmax/Dose [3, 17] of the same molecule?
A: 27.6 (ng/mL)/(mg/kg)

Q: And the “target-residency on PLK1” value (biotinylated PLK1)?
A: just a few minutes
